Data from patent publication US20090143285A1, “TARGET PROTEIN AND TARGET GENE FOR DRUG DISCOVERY AND SCREENING METHOD” (REVERSE PROTEOMICS RESEARCH INSTITUTE CO., LTD., priority 2005, published 2009).
Entries after “also recorded” stand apart in the source; their conditions may differ.

Key:
FLJ41550-derived protein = assay: SEC/MS interaction analysis, FLJ41550-derived protein (SAMHD1); type: binding, human
From the text: (§1) To analyze the interactions between commonly used drugs and proteins expressed from human full-length cDNA clones while keeping both the proteins and the compounds in non-modified, non-immobilized state, size exclusion chromatography (SEC) and mass analysis were used in combination. The specific procedures are shown below.
(§2) The compound-protein mixture prepared in step 1 was subjected to chromatography using an SEC column, the compound and the protein were separated by SEC, and the compound that interacted with the bound compound or protein contained in the protein fraction was analyzed using a mass analyzer.
(§3) Protein concentrations were measured using BCA Protein Assay (PIERCE), in consideration of the purity calculated by SDS-PAGE.
(§4) Mass analysis was performed using LCQ DECA XP (Thermoelectron) or Q-TOF micro (Micromass), equipped with an ESI probe. The LC pump used was Agilent 1100 (Yokogawa Analytical Systems), and the autosampler used was HTC-PAL (CTC Analytics) equipped with a cooling stacker. The SEC column used was a micro-LC column or a 384-well spin column. […]
(§5) In the 384-well spin column method, Unifilter 100 (Whatman), packed with 10 μL (dry volume) of Bio-Gel P6 (BIO-RAD) and swollen with milliQ water, was used as the SEC column. […] The SEC spin column was mounted on an acetonitrile-aliquoted 384-well U-bottom plate and centrifuged; the SEC spin column filtrate, which is a protein fraction, was recovered in 50% acetonitrile. The protein precipitate produced by the acetonitrile was removed via centrifugation and filtration for deproteinization; the resulting filtrate was concentrated by centrifugal concentration and re-dissolved in 10 μL of 50% methanol to obtain a mass analysis sample. The mobile phase supplied to the mass analyzer was 0.1% formic acid/50% methanol solution in the positive ion mode, and 0.1% ammonia/50% methanol solution in the negative ion mode; these mobile phases were used at a flow rate of 40 μL/min. 2-μL of mass analysis samples were injected using an autosampler at 2-minute intervals; the mass spectral intensity of the compound was measured to retrieve the spectral intensity of the pharmaceutical compound contained in the SEC spin column filtrate (protein fraction eluted from SEC).

[1] = test system: FLJXXXXX-derived proteins; assay: SEC/MS spin column interaction analysis of FLJXXXXX-derived proteins and various compounds (Tables 30-1 to 30-4); type: binding, human; conditions: SEC spin column filtrate, spectral intensity increased with doses of compound and protein
FLJ40298-derived protein = FLJ40298-derived protein (Homo sapiens, UniProt Q8N5S3, P254L/R275T); assay: SEC/MS interaction analysis, FLJ40298-derived protein (hypothetical protein FLJ40298); type: binding
Sequence of FLJ40298-derived protein (Q8N5S3 122-287 P254L/R275T): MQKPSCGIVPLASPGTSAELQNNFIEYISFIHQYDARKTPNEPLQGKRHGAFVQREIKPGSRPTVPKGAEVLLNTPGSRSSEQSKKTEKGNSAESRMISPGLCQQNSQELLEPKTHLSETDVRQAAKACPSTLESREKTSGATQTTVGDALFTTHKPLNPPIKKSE
From the text: as §1, §2, §3, §4, §5

FLJ38897-derived protein = target: T1, FLJ38897-derived protein (Homo sapiens, UniProt P57764); assay: SEC/MS interaction analysis, FLJ38897-derived protein (GSDMDC1); type: binding; conditions: spin column method; mixture with protein vs buffer solution alone; data not shown
T1 construct: His-tag (N); made in house; host or cells: Escherichia coli BL21star(DE3)pLysS
T1 sequence (P57764 265-484): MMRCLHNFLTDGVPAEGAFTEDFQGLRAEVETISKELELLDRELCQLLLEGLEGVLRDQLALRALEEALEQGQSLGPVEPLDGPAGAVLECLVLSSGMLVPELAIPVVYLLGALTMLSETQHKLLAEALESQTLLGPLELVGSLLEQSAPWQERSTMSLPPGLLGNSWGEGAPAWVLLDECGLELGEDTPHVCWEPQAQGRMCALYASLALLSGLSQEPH
From the text: as §1, §2, §3, §4, §5

[2] = compound 12.5 μM, protein 10 μM
[3] = compound 12.5 μM, protein 25 μM
[4] = compound 62.5 μM, protein 10 μM
[5] = compound 62.5 μM, protein 25 μM
[6] = spin column method, doses of both compound and protein varied

Compound: CN1CCN(CCCN2c3ccccc3Sc3ccc(S(=O)(=O)N(C)C)cc32)CC1 [thioproperasine, thioproperazine]
- spectrum intensity of the compound in the SEC spin column filtrate (FLJ41550-derived protein; compound 12.5 μM, protein 0 μM): 252410
- spectrum intensity of the compound in the SEC spin column filtrate (FLJ41550-derived protein; compound 12.5 μM, protein 5 μM): 377673
- spectrum intensity of the compound in the SEC spin column filtrate (FLJ41550-derived protein; [2]): 478699
- spectrum intensity of the compound in the SEC spin column filtrate (FLJ41550-derived protein; [3]): 941513
- spectrum intensity of the compound in the SEC spin column filtrate (FLJ41550-derived protein; compound 25 μM, protein 0 μM): 262646
- spectrum intensity of the compound in the SEC spin column filtrate (FLJ41550-derived protein; compound 25 μM, protein 5 μM): 778927
- spectrum intensity of the compound in the SEC spin column filtrate (FLJ41550-derived protein; compound 25 μM, protein 10 μM): 1198533
- spectrum intensity of the compound in the SEC spin column filtrate (FLJ41550-derived protein; compound 25 μM, protein 25 μM): 983016
- spectrum intensity of the compound in the SEC spin column filtrate (FLJ41550-derived protein; compound 62.5 μM, protein 0 μM): 1132948
- spectrum intensity of the compound in the SEC spin column filtrate (FLJ41550-derived protein; compound 62.5 μM, protein 5 μM): 1457362
- spectrum intensity of the compound in the SEC spin column filtrate (FLJ41550-derived protein; [4]): 2445959
- spectrum intensity of the compound in the SEC spin column filtrate (FLJ41550-derived protein; [5]): 2997892
- interaction judged from spectrum intensity of the compound in the SEC spin column filtrate (protein fraction eluted from SEC) (FLJ41550-derived protein; [6]): concentration-dependent interaction
- FLJ No of the derived protein with which the compound was judged to exhibit a concentration-dependent interaction [1]: FLJ37909; also recorded: FLJ41550

Compound: CCCCOc1cc(C(=O)OCCN(CC)CC)ccc1N [benoxinate]
- spectrum intensity of the compound in the SEC spin column filtrate (FLJ40298-derived protein; compound 12.5 μM, protein 0 μM): 202235
- spectrum intensity of the compound in the SEC spin column filtrate (FLJ40298-derived protein; compound 12.5 μM, protein 5 μM): 285949
- spectrum intensity of the compound in the SEC spin column filtrate (FLJ40298-derived protein; [2]): 263958
- spectrum intensity of the compound in the SEC spin column filtrate (FLJ40298-derived protein; [3]): 299357
- spectrum intensity of the compound in the SEC spin column filtrate (FLJ40298-derived protein; compound 25 μM, protein 0 μM): 557220
- spectrum intensity of the compound in the SEC spin column filtrate (FLJ40298-derived protein; compound 25 μM, protein 5 μM): 1519215
- spectrum intensity of the compound in the SEC spin column filtrate (FLJ40298-derived protein; compound 25 μM, protein 10 μM): 552560
- spectrum intensity of the compound in the SEC spin column filtrate (FLJ40298-derived protein; compound 25 μM, protein 25 μM): 583103
- spectrum intensity of the compound in the SEC spin column filtrate (FLJ40298-derived protein; compound 62.5 μM, protein 0 μM): 815144
- spectrum intensity of the compound in the SEC spin column filtrate (FLJ40298-derived protein; compound 62.5 μM, protein 5 μM): 225597
- spectrum intensity of the compound in the SEC spin column filtrate (FLJ40298-derived protein; [4]): 1509221
- spectrum intensity of the compound in the SEC spin column filtrate (FLJ40298-derived protein; [5]): 2027848
- interaction judged from spectrum intensity of the compound in the SEC spin column filtrate (protein fraction eluted from SEC) (FLJ40298-derived protein; [6]): concentration-dependent interaction
- FLJ No of the derived protein with which the compound was judged to exhibit a concentration-dependent interaction [1]: FLJ40298

Compound: C1CCC(C(CC2CCCCN2)C2CCCCC2)CC1 (stereo not drawn) [perhexyline]
- interaction judged from mass spectrum peak intensity of the compound in the spin column filtrate (FLJ38897-derived protein): there was an interaction
- FLJ No of the derived protein with which the compound was judged to exhibit a concentration-dependent interaction ([1]; listed as perhexiline): FLJ37909; also recorded: FLJ38897
